Tests used:
[1] = Protein binding by rapid equilibrium dialysis, mouse plasma; assay type: in vitro ADME; conditions: corrected from 10% diluted plasma, mean ± SD, n=3
Experimental: Protein binding was determined via rapid equilibrium dialysis (RED) with incorporation of a pre-saturation step ([Charman et al., 2020]). The pre-incubation process involved RED system being exposed to fresh aqueous solutions of GW6471 (400 nM) for three periods (including one overnight). For the protein binding determination, GW6471 was spiked into the diluted mouse plasma (10% (v/v); in PBS) or DMEM/F-12 media containing 5% dextran-coated charcoal-stripped FCS (at 2000 nM) and dialysed against protein-free PBS (for plasma) or base media (DMEM/F-12) containing GW6471 at 40 nM for 24 h at 37°C under ambient atmosphere on a plate shaker. Concentrations of GW6471 in dialysate and donor samples collected at the end of the dialysis period were determined via LC–MS.
Compound binding was assessed on the basis of the measured concentrations in dialysate and donor samples at the end of the dialysis period.
Based on the post-dialysis measured concentrations in donor (Ctotal_post_dialysis) and dialysate (Cunbound) for each RED unit, the unbound fraction of compound in assay matrix (fu_diluted) was calculated according to Equation 1 below:(Equation 1) fu=Cunbound/Ctotal_post−dialysis
For media, the value for fu calculated according to Equation 1 above was used without further correction. […]

[2] = In vitro metabolic stability in mouse liver microsomes; assay type: in vitro ADME
Experimental: The test compound (1 μM) was incubated at 37°C with mouse liver microsomes (XenoTech) at a protein concentration of 0.4 mg/mL. The metabolic reaction was initiated by the addition of a NADPH-regenerating system and quenched at various time points over a 60 min incubation period by the addition of acetonitrile. Control samples (without NADPH) were included (and quenched at 2, 30, 60 min) to monitor for potential degradation in the absence of cofactor. The degradation half-life and in vitro intrinsic clearance (in vitro CLint) in microsomes were calculated using the apparent first order degradation rate constant for substrate depletion ([Obach, 1999]).
Compound quantification was performed using a Xevo G2 QTOF (in vitro metabolic stability) using positive electrospray ionisation under MS^E mode or a Waters Xevo TQD (mouse exposure) mass spectrometer using positive electrospray ionisation multiple-reaction monitoring mode. Compounds were eluted using an acetonitrile-water/0.05% formic acid gradient at a flow rate of 0.4 mL/min operating over a 4 min cycle on a Waters Acquity UPLC using a Supelco Ascentis Express RP C8 column (50 × 2.1 mm, 2.7 μm). Extraction was performed by precipitation using acetonitrile (1:1 volume ratio for microsomes and 2:1 volume ratio for plasma samples) followed by centrifugation. Compound concentrations were quantified against calibration standards prepared in an appropriate matrix to match the test samples (e.g. plasma or microsomes).

renal cell carcinoma = tested on: renal cell carcinoma; design: method as in Abu Aboud et al., 2015; conditions: 20 mg/kg; ref Abu Aboud et al., 2015; cited from earlier work
PPARγ = molecular target: T1, PPARγ (Homo sapiens, UniProt P37231); assay: LanthaScreen TR-FRET binding assay, PPARγ; conditions: 2 h incubation, mean of 3 replicates ± SEM
T1 sequence (P37231 238-503 limits assumed): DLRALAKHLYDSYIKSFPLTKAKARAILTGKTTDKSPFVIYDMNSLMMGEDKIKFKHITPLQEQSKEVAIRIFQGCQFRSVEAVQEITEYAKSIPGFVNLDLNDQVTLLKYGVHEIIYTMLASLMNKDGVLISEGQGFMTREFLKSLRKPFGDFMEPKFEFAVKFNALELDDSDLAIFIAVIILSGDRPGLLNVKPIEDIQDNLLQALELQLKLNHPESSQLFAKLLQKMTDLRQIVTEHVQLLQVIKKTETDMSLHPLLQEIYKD
Experimental: The LanthaScreen™ TR-FRET binding assay was performed following the manufacturer's guidelines (PV4894, Invitrogen) as follows, 20 mM stock solution of the ligand or control in DMSO were serially diluted using 100% DMSO to produce a range of concentrations from 100 μM to 1 pM. The test compound solutions were mixed with the reaction buffer in a 1 (ligand) in 10 (reaction buffer) dilution for a final 2X ligand concentration. This was mixed with the reaction components (glutathione S-transferase (GST)-PPPARγLBD (0.5 nM)/, terbium (Tb)-labelled anti-GST antibody (5 nM) and Fluormone pan-PPAR green (5 nM for PPARγ; 20 nM for PPARα) at room temperature in a ratio of 8 μLl 2X ligand solution: 4 μLl of 4XFluormone: and 4 μLl 4X GST-PPPARγLBD/terbium (Tb)-labelled anti-GST antibody to produce a final reaction mixture volume of 16 μL. The concentration of DMSO in the final reaction mixture was 5%. The reaction mixture was kept at room temperature for 2 h prior to recording the TR-FRET emission spectra using a CLARIOstar Plus microplate reader (BMG Labtech). […] Results are expressed as the ratio of fluorescence intensity at 520 nm (Fluormone emission) and 490 nm (Tb emission). […] For each compound three serial dilutions were prepared and measured separately. The IC50 and SEM values were determined using a sigmoidal dose-response equation with varying slope using GraphPad Prism.

In the case of `CCC(=O)NC[C@H](Cc1ccc(OCCc2nc(-c3ccccc3)oc2C)cc1)N/C(C)=C\C(=O)c1ccc(C(F)(F)F)cc1` [GW6471], the “Fraction unbound (fu)” value [1] is reported as 0.00059 ± 0.00005, the “In vitro CLint” value ([2]; NADPH-activated mouse liver microsomes) is reported as 556 μL/min/mg protein and the Degradation half-life ([2]; NADPH-activated mouse liver microsomes, 1 μM, 0.4 mg/mL protein) is reported as 3 min. The “Stability in the absence of NADPH” value ([2]; mouse liver microsomes without NADPH) was “stable”, the “Tumor reduction in vivo” value (renal cell carcinoma) was “significant tumor reduction” and the IC50 (PPARγ) was 39.4 ± 18.2 nM.

From publication PMC8692993, “PPARα and PPARγ activation is associated with pleural mesothelioma invasion but therapeutic inhibition is ineffective” (iScience, 2021)
